Source: patent US20220119375A1, “3-ARYLOXY-3-ARYL-PROPYLAMINE COMPOUND AND USES THEREOF” (Zhangzhou Pien Tze Huang Pharmaceutical Co., Ltd., priority 2018, published 2022)
Where two headings read alike, the source gives them in different places.

Experiments:
[1] = test system: C57BL/6 mice, formalin pain model; test: mice formalin pain model, dose response (Example 50); format: in vivo, mouse; details: for Licking time: Phase II, 10-60 min
Experimental: 100 male C57BL/6 mice (9-week aged), were randomly divided into 10 groups to evaluate analgesic activity of two compounds in the mice formalin pain model, and each group had 10 mice. […] Before the start of experiment, the mice were allowed to adapt experimental environment for 72 h with free feeding and drinking water. The test drug was administrated intraperitoneally, and the dosage was as follows:
After administration, the mice were placed in a transparent, ventilated plexiglass cylinder, and 1 h later, 20 μl of 4% formalin solution was injected into the left hind plantar of mice in each group by micro-injector, and claw pain response in mice was recorded in real time by a mini-camera. The time length of licking left claw was used as an indicator of pain response, licking time in 0-10 min (phase I) and 10-60 min (phase II) was observed and recorded, and the statistical analysis was conducted. The half effective dose (ED50) of three compounds was calculated: ED50 referred to the dose of the drug that decreased licking time by half as compared with the blank control group. The smaller the ED50 value was, the lower the effective analgesic dose of the compound was and the stronger the analgesic effect was.

[2] = Pharmacokinetic test in rat; format: in vivo; details: for bioavailability: oral, calculated on AUC(0-∞); for half-life: read-out: T½ (converted)
Experimental: A certain amount of sample was weighed and dissolved in deionized water to prepare 1 mg/mL of solution. Male SD rats were used as test animals. The dose of single intravenous (IV) injection was 2 mg/kg, and the dose of oral (PO) administration was 10 mg/kg. Each group had three rats. The rats in oral group were fasted for 10-14 hours before administration, and were fed 4 hours after administration. Animal blood collection time points were as follows: before administration, and 5 min, 15 min, 30 min, 1 h, 2 h, 4 h, 6 h, 8 h, and 24 h after administration for intravenous administration; before administration, and 15 min, 30 min, 1 h, 2 h, 4 h, 6 h, 8 h and 24 h after administration for oral administration. About 0.25 mL of blood was collected via the jugular vein from each animal, and heparin sodium was used for anticoagulation. After collecting the blood samples, the blood samples were placed on ice and centrifuged to separate the plasma (centrifugation conditions: 8000 rpm, 6 min, 4° C.). The collected plasma was stored at −80° C. before analysis. 50 μL of plasma sample was taken into 1.5 mL of centrifuge tube, 250 μL of internal standard solution was added, and the same volume of methanol rather than internal standard solution was added in the blank group. The mixture was vortexed and mixed, centrifuged at 14,000 rpm for 5 min, 200 μL of supernatant was taken into 96-well sample plate, and the LC-MS/MS was used for sample analysis. In the linear regression analysis, the peak area was taken as the y-axis and the drug concentration was taken as the x-axis. The linear relationship between the peak area ratio and the concentration was expressed by the correlation coefficient (R) obtained from the regression equation of the compound. According to the blood concentration data of the drug, the pharmacokinetic calculation software WinNonlin7.0 non-compartmental model was used to calculate the pharmacokinetic parameters of the test drug.
Internal standard working solution: a certain amount of tolbutamide internal standard stock solution with a concentration of 490,000 ng/mL was taken into a volumetric flask with a certain volume, diluted to a desired volume with methanol and mixed well to obtain the internal standard working solution with a concentration of 200 ng/mL.

human TRPA1 channel = biological target: T1, human TRPA1 channel (Homo sapiens, UniProt O75762); test: manual patch clamp detection of TRPA1 inhibitory activity; format: cell-based; details: for IC50: HEK293 stably expressing human TRPA1, 100 μM AITC, +100 mV
T1 construct: expressed in transfected cells; host or cells: HEK293
Experimental: The HEK293 cell line stably expressing human TRPA1 channel was placed in T75 culture flask with DMEM medium containing 15 μg/mL Blasticidin S HCl, 200 μg/mL Hygromycin B and 10% FBS, and cultured in incubator at 37° C. and 5% CO2. When the cell density reached about 80%, the culture medium was removed, the residue was rinsed with phosphate buffered saline (PBS) without calcium and magnesium. 2 mL of trypsin was added to digest for 2 minutes, and 8 mL of culture medium was added to terminate the digestion. The cells were collected to 15 mL centrifuge tube and centrifuged at 800 rpm for 3 min. After the supernatant was removed, an appropriate volume of extracellular fluid was added to re-suspend the cells.
In manual patch clamp detection, HEKA system (Patch Master software) was used together with EPC-10 amplifier to record the whole cell current of TRPA1 stably transfected cell line at room temperature. intracellular fluid formulation for whole cell recording was as follows (mM): 140 CsCl, 10 HEPES, 5 EGTA, 0.1 CaCl2, 1 MgCl2 (pH 7.2, osmotic pressure 295-300 mOsm); Ca^2+-free extracellular fluid formulation for recording was as follows (mM): 140 NaCl, 5 KCl, 0.5 EGTA, 1 MgCl2, 10 Glucose, 10 HEPES (pH 7.4, osmotic pressure 300-310 mOsm). Glass microelectrode resistance used for patch clamp recording was 2-4 MΩ, the sampling frequency was 10 kHz, the filter frequency was 2.9 kHz, the cell clamp was 0 mV, and the voltage stimulation command (channel protocol) was a linear voltage from −100 mV to +100 mV for 300 ms, then restored to 0 mV clamping potential. The recording was performed every 2 s. The hTRPA1 current was induced by 100 μM AITC. To ensure the accuracy of current recording, the series resistance was used for 60% compensation during recording.
Data recording and current amplitude measurement export were completed by Patch Master software. Cells with sealing impedance lower than 500 MΩ, w were not included in the statistics. The original current data were corrected by software for leakage reduction, and the hTRPA1 current amplitude was measured at +100 mV. The compound dose-effect curve and IC50 were fitted and calculated by GraphPad Prism 5.02 (GraphPad Software, San Diego, Calif.).

[3] = test system: ICR mice, acetic acid writhing pain model; test: mice acetic acid writhing pain model; format: in vivo, mouse; details: for number of appearance of writhing reaction: within 30 min, saline group 49 times
Experimental: Male ICR mice, weighed 22-25 g, were fasted but allowed to drink water freely for 2 h before administration. All ICR mice were weighed and grouped randomly, and the number of animals in each group was >10. […] The test compound was IC-1 (the compound prepared in Example 9), and the administration dosages were 5 mg/kg and 10 mg/kg. […] When concave abdomen, stretched trunk and hind claw, and high buttocks appeared, one number point was recorded. […] After administration, the fewer visceral pains in the mice were, the stronger the analgesic effect of the compound was.

T1 sequence (O75762 whole entry): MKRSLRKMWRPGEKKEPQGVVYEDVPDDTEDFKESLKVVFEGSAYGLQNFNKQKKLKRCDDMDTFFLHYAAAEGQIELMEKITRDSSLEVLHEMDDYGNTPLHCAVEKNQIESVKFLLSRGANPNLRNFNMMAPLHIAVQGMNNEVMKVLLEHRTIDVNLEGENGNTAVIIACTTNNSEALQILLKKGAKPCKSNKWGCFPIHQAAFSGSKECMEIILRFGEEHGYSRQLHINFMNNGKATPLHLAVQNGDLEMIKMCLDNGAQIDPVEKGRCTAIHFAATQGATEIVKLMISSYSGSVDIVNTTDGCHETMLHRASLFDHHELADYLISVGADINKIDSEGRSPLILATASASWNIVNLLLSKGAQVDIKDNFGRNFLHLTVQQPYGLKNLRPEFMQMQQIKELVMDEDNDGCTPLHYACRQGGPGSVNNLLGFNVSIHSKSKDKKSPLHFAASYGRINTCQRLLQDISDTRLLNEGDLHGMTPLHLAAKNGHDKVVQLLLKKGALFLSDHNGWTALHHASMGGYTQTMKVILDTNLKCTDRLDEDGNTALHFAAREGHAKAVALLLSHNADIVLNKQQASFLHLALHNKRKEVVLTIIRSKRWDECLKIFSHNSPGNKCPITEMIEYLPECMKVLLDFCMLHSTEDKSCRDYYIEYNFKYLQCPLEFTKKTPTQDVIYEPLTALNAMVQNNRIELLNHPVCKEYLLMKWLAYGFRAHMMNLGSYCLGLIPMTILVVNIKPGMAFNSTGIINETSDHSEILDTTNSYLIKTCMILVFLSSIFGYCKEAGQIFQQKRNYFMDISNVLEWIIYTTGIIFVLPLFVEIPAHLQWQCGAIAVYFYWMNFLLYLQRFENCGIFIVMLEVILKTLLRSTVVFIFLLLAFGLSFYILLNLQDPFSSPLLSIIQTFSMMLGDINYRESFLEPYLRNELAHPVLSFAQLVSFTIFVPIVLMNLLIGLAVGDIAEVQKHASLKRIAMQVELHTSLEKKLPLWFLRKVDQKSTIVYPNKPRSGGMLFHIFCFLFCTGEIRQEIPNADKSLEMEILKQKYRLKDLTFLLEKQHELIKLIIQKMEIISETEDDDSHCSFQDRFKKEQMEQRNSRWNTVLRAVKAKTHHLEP

| Compound | bioavailability ([2]; male, SD, plasma, 10 mg/kg) | AUC(0-inf) ([2]; male, SD, plasma, IV 2 mg/kg) | Cmax ([2]; male, SD, plasma, IV 2 mg/kg) | half-life ([2]; male, SD, plasma, IV 2 mg/kg) | AUC(0-inf) ([2]; male, SD, plasma, PO 10 mg/kg) | Cmax ([2]; male, SD, plasma, PO 10 mg/kg) | half-life ([2]; male, SD, plasma, PO 10 mg/kg) | IC50 (human TRPA1 channel) | number of appearance of writhing reaction ([3]; 10 mg/kg by gavage) | other results |
| --- | --- | --- | --- | --- | --- | --- | --- | --- | --- | --- |
| CNCC[C@H](Oc1cccc2ccoc12)c1cccs1 [Compound IC-1, (S)-3-(benzofuran-7-yloxy)-N-methyl-3-(thiophen-2-yl)propyl-1-amine] | 179% | 0.449 µg·h/mL | 0.17 µg/mL | 2.97 h | 4.02 µg·h/mL | 0.266 µg/mL | 5.69 h | 0.43 µM | 17 times | decrease of licking time as compared with blank Vehicle ([1]; 1 mg/kg, phase II (10-60 min)): more than 50%; Tmax ([2]; male, SD, plasma, IV 2 mg/kg, read-out: Tmax): 0.083 h; Tmax ([2]; male, SD, plasma, PO 10 mg/kg, read-out: Tmax): 3 h; ratio of IC50 of S configuration of duloxetine to IC50 of the compound, manual patch clamp (human TRPA1 channel; manual patch clamp): 10.14; writhing number lower than in the saline control group ([3]; 5 mg/kg by gavage): 50%; number of appearance of writhing reaction ([3]; 5 mg/kg by gavage): 20 times; half effective dose ([3]; acetic acid writhing, gavage): less than 5 mg/kg |
| CNCC[C@H](Oc1cccc2ccccc12)c1cccs1 [Duloxetine (S configuration), Duloxetine] | 9.9% | 0.449 µg·h/mL | 0.177 µg/mL | 1.77 h | 0.222 µg·h/mL | 0.076 µg/mL | 1.81 h | 4.36 µM | 27 times | Licking time ([1]; 1 mg/kg intraperitoneal): 259.97 ± 64.44 s; Licking time ([1]; 5 mg/kg intraperitoneal): 230.49 ± 41.31 s; Licking time ([1]; 10 mg/kg intraperitoneal): 162.83 ± 36.27 s; Licking time ([1]; 20 mg/kg intraperitoneal): 72.27 ± 17.29 s; ED50 ([1]; Mus musculus, ip, intraperitoneal, phase II (10-60 min), dose that decreased licking time by half): 8 mg/kg; Tmax ([2]; PO 10 mg/kg, 10 mg/kg): 0.833 h; Tmax ([2]; male, SD, plasma, iv, 2 mg/kg, IV 2 mg/kg, read-out: Tmax): 0.083 h; Tmax ([2]; male, SD, plasma, po, 10 mg/kg, PO 10 mg/kg, read-out: Tmax): 0.83 h; number of appearance of writhing reaction ([3]; 20 mg/kg by gavage): 21 times |
